Tests used:
nitrogenase = conditions: competitive inhibition of nitrogenase; cited from earlier work
[1] = tested on: glutamine synthetase (GS); experiment: NH3 secretion in the hybrid device after addition of GS inhibitor; assay type: cell-based, X. autotrophicus; conditions: 50 μM inhibitor
Protocol: Eappl is defined as the voltage difference between the working (OER) and counter/reference (HER) electrodes in a two-electrode configuration. After inoculation with X. autotrophicus (initial OD600=0.2), the reactor was purged with the gas mixture at a flow rate between 5 to 20 mL min^−1. These electrochemical cells were stirred at 350 rpm to facilitate mass transport and were immersed in a 30° C. water bath. The electrolyte was sampled every 12 or 24 hr to quantify OD600 and N accumulation. For time points in which […] (GS) inhibitor phosphinothricin (PPT) was added with final concentration of 50 μM, aliquots were sampled prior to inhibitor addition. The reported data are based on at least three biological replicates (n≥3).
Ntotal was determined from sampled aliquots after persulfate digestion and based on the absorption of oxidized phenol under acidic conditions (Hach Company 2672245). Nsoluble was determined similarly as Ntotal, except that the supernatants after 10,000 rpm centrifugation were digested in persulfate and subsequently analyzed. NH3 was also determined from the supernatants after centrifugation, but based on the salicylate method that is selective to ammonia (Hach Company TNT830). […] For each category of nitrogen content, the nitrogen concentrations were determined by comparing the solution absorbance with those in standard curves. When PPT was added to induce NH3 secretion, the measured nitrogen concentrations presented in FIG. 5B and Table 3 was subtracted from the nitrogen in PPT (2 nitrogen atoms per each PPT molecule for Ntotal, and 1 nitrogen atom per each PPT for NH3). The PPT nitrogen content was also subtracted when calculating ηelec, NRR in Table 1.

X. autotrophicus = conditions: read-out: half maximum inhibitory concentration (IC50)

Structure (SMILES): [HH] [H2, hydrogen]
- inhibition constant Ki(D2) (nitrogenase): ~11 kPa

Structure (SMILES): CP(=O)(O)CC[C@H](N)C(=O)O [PPT, phosphinothricin]
- biomass of X. autotrophicus after inhibitor addition [1]: stagnated
- concentration of NNH3 at end of experiment ([1]; Eappl=3.0 V): ~0.8 mM
- accumulated Ntotal ([1]; Eappl=3.0 V, n=3): 47 ± 3 mg/L
- concentration of N in free NH3 in the solution (NNH3) at end of experiment ([1]; Eappl=3.0 V, n=3): 11 ± 2 mg/L
- biomass of X. autotrophicus after inhibitor addition ([1]; listed as phosphinothricin): slows

Structure (SMILES): [Co+2] [Co2+]
- IC50 (X. autotrophicus): ~50 µM
